Reference: patent publication US20230112279A1, “DETERGENT COMPOSITION” (Conopco, Inc., d/b/a UNILEVER, priority 2020, published 2023)

How the values were obtained:
[1] = molecular target: T1, Lipex 100 L lipase (Thermomyces lanuginosus, UniProt O59952, N255R/T253R); experiment: Biochemical determination of lipase activity (4-nitrophenyl ester hydrolysis, 405 nm) with Lipex 100 L; settings: for Lipex 100L activity in the presence of saponins: 10 ng/mL lipase; for activation of Lipex 100 L: saponin at fixed concentration of 10 μM, FIG. 3; for % increase in Lipase activity in the presence of escin saponin compared to absence of saponin: Lipex 100L
T1 construct: purchased Novozymes
Method: (§1) Lipase activity was determined by a colorimetric method using 4-nitrophenyl-valerate (C5) and 4-nitrophenyl-dodecanoate (C12) as substrates. 4-nitrophenyl-dodecanoate (25 mg) or 4-nitrophenyl-valerate (18 mg) were dissolved in 10 mL solvent (methanol) to prepare 8 mM stock solutions. 1 mL of stock solution was added in 7 mL of acidified water (pH 4.5), to give a final concentration of 1 mM (the substrate). In 96-well microtitre plates the following reagents were added: 60 μL dH2O, 80 μL Tris-HCl buffer (pH 8.5, 50 mM), 20 μL of diluted enzyme solution, 20 μL of saponin 10× concentrated stock solution. 20 μL substrate was then added to start the reaction. For zero enzyme controls, enzyme solution was replaced with H2O. Following the addition of substrate, the release of product (4-nitrophenol) was monitored at 405 nm for 15 min at ambient temperature in a Varioskan plate reader.
(§2) The dose response of various lipases to saponins were tested in a biochemical assay. The concentration of lipase in these experiments was 10 μg/L. This level was chosen to ensure that substrate hydrolysis and resultant increase in absorbance measurements falls within the sensitivity of the spectrophotometer. […] In all cases, the lipase activity increased as the escin concentration reached above a threshold value, which varied according to the enzyme in question, but was in the region 0.01 (Resinase HT) to 0.10 μM (Lipex, 100 L, Lipex Evity and Novozyme 51032).
Activation of a single lipase (Lipex 100 L) by a variety of natural saponins and saponins derived through metabolic engineering were tested using the biochemical assay. The unglycosylated terpenoid, oleanolic acid (OA), was also tested to determine whether lipase activation was a result of the terpenoid moiety or required the terpenoid scaffold to be glycosylated. To compare this directly, the enzymes activation by saponins comprising oleanolic acid glycosylated with 3 or 4 glycoside residues at the C28 position of the triterpenoid (oleanolic acid-28-O-triglycoside (OA-28 x3Gly) and oleanolic acid-28-O-tetraglycoside (OA-28 x4Gly), were compared directly to the activation achieved by oleanolic acid.
Biochemical assays measuring lipase activity were initially used in high-throughput microtitre plate format to enable different saponins at different doses to be screened as potential inhibitors of Lipex 100 L lipase (Novozymes). Effective inhibitors are sought to prevent the lipase hydrolytic activity towards the soil release polymer which is typically observed. […] When using 10 ng/mL lipase ([…]) in this case (this level chosen to ensure that substrate hydrolysis and resultant increase in absorbance measurements falls within the sensitivity of the spectrophotometer) the typical saponin concentration required to inhibit the lipase was around 50-125 μM.

[2] = molecular target: T1, Lipex 100 L lipase; experiment: Inhibition of Lipex 100 L at fixed dose of 500 μM (Example 7, C12 pNP ester); type: biochemical; settings: fixed dose of 500 μM; for Lipex 100L lipase activity (inhibitory effect of various saponin derivatives): lipase 10 ng/mL final, 50 mM Tris pH 8.5, 25° C., C12 pNP ester 0.1 mM final, lipase-only control 0.0545; for lipase inhibition: Lipex 100 L 10 ng/mL, C12 pNP ester
Method: as §1
Various saponins were tested for their ability to inhibit Lipex 100 L lipase (10 ng/mL final). A buffer was used (50 mM Tris pH 8.5) and the experiments were carried out at 25° C. At a fixed dose of 500 μM a number of those tested were effective in lowering the lipase activity. The substrate used for testing as C12 pNP ester (0.1 mM final). These included glycosylated derivatives of oleanolic acid, avenacin, tea tree saponin as well as escin (table 4). Orlistat as a known inhibitor of lipase was also included for comparison (table 4).

[3] = test system: Lipex Evity; experiment: Biochemical determination of lipase activity with Lipex Evity; settings: lipase 10 μg/L
Method: as §1, §2

[4] = test system: Resinase HT; experiment: Biochemical determination of lipase activity with Resinase HT; settings: lipase 10 μg/L
Method: as §1, §2

[5] = test system: Novozym 51032; experiment: Biochemical determination of lipase activity with Novozym 51032; settings: lipase 10 μg/L; for % increase in Lipase activity in the presence of escin saponin compared to absence of saponin: Novozym 51032
Method: as §1, §2

T1 sequence (O59952 23-291 T253R/N255R): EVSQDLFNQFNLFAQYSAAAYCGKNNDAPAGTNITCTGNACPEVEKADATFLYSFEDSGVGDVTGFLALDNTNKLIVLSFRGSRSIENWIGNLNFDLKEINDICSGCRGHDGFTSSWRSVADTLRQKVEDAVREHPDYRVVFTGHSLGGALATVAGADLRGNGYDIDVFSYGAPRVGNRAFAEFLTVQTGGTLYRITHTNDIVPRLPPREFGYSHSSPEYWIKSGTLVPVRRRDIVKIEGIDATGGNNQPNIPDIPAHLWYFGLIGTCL

CC1(C)[C@@H](O[C@H]2O[C@H](C(=O)O)[C@@H](O)[C@H](O)[C@H]2O[C@@H]2O[C@H](C(=O)O)[C@@H](O)[C@H](O)[C@H]2O)CC[C@]2(C)[C@H]3C(=O)C=C4[C@@H]5C[C@@](C)(C(=O)O)CC[C@]5(C)CC[C@@]4(C)[C@]3(C)CC[C@@H]12 [Glycyrrhizic acid]
Lipex 100L activity in the presence of saponins ([1]; saponin dose 0.01 μM): 0.244 Δabs/min @405 nm
Lipex 100L activity in the presence of saponins ([1]; saponin dose 0.1 μM): 0.252 Δabs/min @405 nm
Lipex 100L activity in the presence of saponins ([1]; saponin dose 0.5 μM): 0.238 Δabs/min @405 nm
Lipex 100L activity in the presence of saponins ([1]; saponin dose 10 μM): 0.221 Δabs/min @405 nm
Lipex 100L activity in the presence of saponins ([1]; saponin dose 25 μM): 0.171 Δabs/min @405 nm
Lipex 100L activity in the presence of saponins ([1]; saponin dose 50 μM): 0.135 Δabs/min @405 nm
Lipex 100L activity in the presence of saponins ([1]; saponin dose 125 μM): 0.116 Δabs/min @405 nm
Lipex 100L activity in the presence of saponins ([1]; saponin dose 250 μM): 0.083 Δabs/min @405 nm
Lipex 100L activity in the presence of saponins ([1]; saponin dose 500 μM): 0.068 Δabs/min @405 nm

CC1(C)CC[C@]2(C(=O)O)CC[C@]3(C)C(=CC[C@@H]4[C@@]5(C)CC[C@H](O)C(C)(C)[C@@H]5CC[C@]43C)[C@@H]2C1 [Oleanolic acid, reference compound]
activation of Lipex 100 L [1]: small activation
Lipex 100L lipase activity (inhibitory effect of various saponin derivatives) [2]: 0.0842 (±0.0084) abs/min @405 nm

CCCCCCCCCCC[C@@H](C[C@@H]1OC(=O)[C@H]1CCCCCC)OC(=O)[C@H](CC(C)C)NC=O [Orlistat, reference compound]
Lipex 100L lipase activity (inhibitory effect of various saponin derivatives) [2]: −0.00032 (±0.0003) abs/min @405 nm

Avenacin
lipase inhibition [2]: complete inhibition
Lipex 100L lipase activity (inhibitory effect of various saponin derivatives) [2]: 0.0013 (±0.0006) abs/min @405 nm

Escin
threshold escin concentration above which lipase activity increased [3]: ~0.10 µM
% increase in Lipase activity in the presence of escin saponin compared to absence of saponin ([3]; saponin dose 0.01 μM): 0%
% increase in Lipase activity in the presence of escin saponin compared to absence of saponin ([3]; saponin dose 0.1 μM): 20%
% increase in Lipase activity in the presence of escin saponin compared to absence of saponin ([3]; saponin dose 0.5 μM): 120%
% increase in Lipase activity in the presence of escin saponin compared to absence of saponin ([3]; saponin dose 1 μM): 200%
% increase in Lipase activity in the presence of escin saponin compared to absence of saponin ([3]; saponin dose 2.5 μM): 240%
% increase in Lipase activity in the presence of escin saponin compared to absence of saponin ([3]; saponin dose 5 μM): 260%
ability to decrease lipase activity (in words) ([1]; Lipex 100 L, Table 2 screen): decrease lipase activity to negligible levels
threshold escin concentration above which lipase activity increased ([1]; Lipex 100 L, lipase 10 μg/L): ~0.10 µM
% increase in Lipase activity in the presence of escin saponin compared to absence of saponin ([1]; saponin dose 0.01 μM, lipase 10 μg/L): −25%
% increase in Lipase activity in the presence of escin saponin compared to absence of saponin ([1]; saponin dose 0.1 μM, lipase 10 μg/L): 25%
% increase in Lipase activity in the presence of escin saponin compared to absence of saponin ([1]; saponin dose 0.5 μM, lipase 10 μg/L): 100%
% increase in Lipase activity in the presence of escin saponin compared to absence of saponin ([1]; saponin dose 1 μM, lipase 10 μg/L): 450%
% increase in Lipase activity in the presence of escin saponin compared to absence of saponin ([1]; saponin dose 2.5 μM, lipase 10 μg/L): 1650%
% increase in Lipase activity in the presence of escin saponin compared to absence of saponin ([1]; saponin dose 5 μM, lipase 10 μg/L): 1775%
Lipex 100L activity in the presence of saponins ([1]; saponin dose 0.01 μM): 0.257 Δabs/min @405 nm
Lipex 100L activity in the presence of saponins ([1]; saponin dose 0.1 μM): 0.241 Δabs/min @405 nm
Lipex 100L activity in the presence of saponins ([1]; saponin dose 0.5 μM): 0.247 Δabs/min @405 nm
Lipex 100L activity in the presence of saponins ([1]; saponin dose 10 μM): 0.200 Δabs/min @405 nm
Lipex 100L activity in the presence of saponins ([1]; saponin dose 25 μM): 0.204 Δabs/min @405 nm
Lipex 100L activity in the presence of saponins ([1]; saponin dose 50 μM): 0.152 Δabs/min @405 nm
Lipex 100L activity in the presence of saponins ([1]; saponin dose 125 μM): 0.006 Δabs/min @405 nm
Lipex 100L activity in the presence of saponins ([1]; saponin dose 250 μM): 0.001 Δabs/min @405 nm
Lipex 100L activity in the presence of saponins ([1]; saponin dose 500 μM): 0.001 Δabs/min @405 nm
threshold escin concentration above which lipase activity increased [4]: ~0.01 µM
% increase in Lipase activity in the presence of escin saponin compared to absence of saponin ([4]; saponin dose 0.01 μM): 70%
% increase in Lipase activity in the presence of escin saponin compared to absence of saponin ([4]; saponin dose 0.1 μM): 60%
% increase in Lipase activity in the presence of escin saponin compared to absence of saponin ([4]; saponin dose 0.5 μM): 170%
% increase in Lipase activity in the presence of escin saponin compared to absence of saponin ([4]; saponin dose 1 μM): 210%
% increase in Lipase activity in the presence of escin saponin compared to absence of saponin ([4]; saponin dose 2.5 μM): 140%
% increase in Lipase activity in the presence of escin saponin compared to absence of saponin ([4]; saponin dose 5 μM): 200%
Lipex 100L lipase activity (inhibitory effect of various saponin derivatives) [2]: 0.0039 (±0.0027) abs/min @405 nm
% increase in Lipase activity in the presence of escin saponin compared to absence of saponin ([5]; saponin dose 0.01 μM): 0%
% increase in Lipase activity in the presence of escin saponin compared to absence of saponin ([5]; saponin dose 0.1 μM): 50%
% increase in Lipase activity in the presence of escin saponin compared to absence of saponin ([5]; saponin dose 0.5 μM): 50%
% increase in Lipase activity in the presence of escin saponin compared to absence of saponin ([5]; saponin dose 1 μM): 50%
% increase in Lipase activity in the presence of escin saponin compared to absence of saponin ([5]; saponin dose 2.5 μM): 150%
% increase in Lipase activity in the presence of escin saponin compared to absence of saponin ([5]; saponin dose 5 μM): 250%
threshold escin concentration above which lipase activity increased ([5]; Novozyme 51032): ~0.10 µM

oleanolic acid-28-O-tetraglycoside [OA-28 x4Gly]
lipase inhibition [2]: 80%
Lipex 100L lipase activity (inhibitory effect of various saponin derivatives) [2]: 0.0109 (±0.0006) abs/min @405 nm

oleanolic acid-28-O-triglycoside [OA-28 x3Gly]
activation of Lipex 100 L [1]: greater than 20 fold
lipase inhibition [2]: complete inhibition
Lipex 100L lipase activity (inhibitory effect of various saponin derivatives) [2]: −0.0011 (±0.0005) abs/min @405 nm
